In article PMC12413947, “Caffeine Acts as an Agonist of Siglec-6, Inhibits MRGPRX2-Triggered Mast Cell Degranulation and Anaphylactoid Reactions” (Mediators of Inflammation, 2025):

Target: T1, Siglec-6 (Homo sapiens, UniProt O43699)
T1 construct: gene SIGLEC6; captured on CM5 chip
Experiment: surface plasmon resonance (Biacore T200)
Assay type: binding
From the text: surface plasmon resonance (Biacore T200) on Siglec-6 | The binding affinity between caffeine and Siglec-6 protein is with a calculated KD of […]

T1 sequence (O43699 27-347 limits assumed): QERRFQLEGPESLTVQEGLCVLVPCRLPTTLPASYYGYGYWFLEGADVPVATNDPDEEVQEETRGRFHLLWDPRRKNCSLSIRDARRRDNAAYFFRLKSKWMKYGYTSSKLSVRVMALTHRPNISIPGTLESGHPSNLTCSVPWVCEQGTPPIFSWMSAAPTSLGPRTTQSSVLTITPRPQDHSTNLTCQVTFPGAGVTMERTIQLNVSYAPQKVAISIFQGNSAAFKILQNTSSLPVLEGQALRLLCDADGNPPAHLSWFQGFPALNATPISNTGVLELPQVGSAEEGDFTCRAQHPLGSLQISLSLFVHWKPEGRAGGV

Cn1c(=O)c2c(ncn2C)n(C)c1=O [caffeine]
Kd: 176 nM
